The text below walks through data of patent US9255132B2, “Angiopoietin derived peptides” (Compugen Ltd., priority 2008, dated 2016).

Assay [1] deals with avian chorioallantoic membrane (CAM). The format is in vivo, Leghorn fertilized eggs. The following applies: fumagillin 5 μg/CAM; 48 h. The procedure: CGEN-G6 [SEQ ID NO: 6], CGEN-F9 [SEQ ID NO: 7], CGEN-F12 [SEQ ID NO: 8], CGEN-C6 [SEQ ID NO: 9], CGEN-A11 [SEQ ID NO: 10], and CGEN-G2 [SEQ ID NO: 11], were analyzed for their ability to affect angiogenesis using the in ovo avian chorioallantoic membrane (CAM) model of angiogenesis, which is widely used as a model to examine compounds affecting angiogenesis (Richardson and Singh 2003, Curr Drug Targets Cardiovasc Haematol Disord., 3(2):155-85). Two positive controls were used: fumagillin as a general anti-angiogenic compound, and Tie2 neutralizing antibody as anti-angiogenic inhibitor of the Ang/Tie2 pathway. Leghorn fertilized eggs were incubated for 4 days at 37° C., when a window was opened on the egg's shell, exposing the CAM. Two different doses of peptides (0.5 and 5 nmol/CAM), Tie-2 neutralizing antibody (R&D Systems, Cat#AF313, 10 μg/ml; 0.4 μg/CAM) or fumagillin (Tocris Bioscience, Cat #1768; 5 μg/CAM) were applied in a 40 μl volume inside an area of 1 cm^2 (restricted by a plastic ring) of the CAM on day 9 of embryo development. The appropriate vehicle controls were also tested. Forty-eight hours after treatment and subsequent incubation at 37° C., CAMs were fixed in situ, excised from the eggs, placed on slides and left to air-dry. Pictures were taken through a stereoscope equipped with a digital camera and the total length of the vessels was measured using image analysis software (NIH Image). For each group a total of 17-24 eggs from three different experiments were used. Data are presented as means±SEM and expressed as % of vehicle control. Statistical analysis (ANOVA followed by Dunnett's post-hoc test) was performed using Graph Pad.
FIG. 6 depict results obtained on vessel length with peptides CGEN-G6 [SEQ ID NO: 6], CGEN-F9 [SEQ ID NO: 7], CGEN-F12 [SEQ ID NO: 8], CGEN-C6 [SEQ ID NO: 9], CGEN-A11 [SEQ ID NO: 10], and CGEN-G2 [SEQ ID NO: 11], compared to Tie2 neutralizing antibody (Ab) and the anti-angiogenic compound fumagillin. Neutralizing Tie2 Ab blocked vessel length by 36%, while the angiogenesis inhibitor fumagillin blocked vessel length by 32%.

Assay [2] has as its system co-culture of early passage human endothelial cells with early passage human interstitial cells. Kind of assay: AngioKit in vitro angiogenesis, total tubule length. The format is cell-based. Particulars: 14 days, data not shown.

Consider `CO[C@@H]1[C@H](OC(=O)/C=C/C=C/C=C/C=C/C(=O)O)CC[C@]2(CO2)[C@H]1[C@@]1(C)O[C@@H]1CC=C(C)C` [fumagillin, reference compound], for which the “inhibition of vessel length” value in assay [1] is 32%. Turning to `Cc1ccc(C(=O)Nc2ccc(S(=O)(=O)O)c3cc(S(=O)(=O)O)cc(S(=O)(=O)O)c23)cc1NC(=O)c1cccc(NC(=O)Nc2cccc(C(=O)Nc3cc(C(=O)Nc4ccc(S(=O)(=O)O)c5cc(S(=O)(=O)O)cc(S(=O)(=O)O)c45)ccc3C)c2)c1` [suramin], in assay [2] (suramin 20 μM), the “reduction of tubule length” value is 50%. For VEGF, in assay [2] (VEGF 2 ng/mL, pro-angiogenic control), the “induction of tubule length” value is listed as 130%.
